pIC50: −log10 of the molar value.
Key:
[1] = system: LNCaP; assay: Cytotoxicity against human LNCAP cells assessed as inhibition of cell proliferation by MTS assay; assay type: functional, cell-based
[2] = system: Calf thymus DNA; assay: Binding affinity to calf thymus DNA assessed as change in melting temperature treated with (5-amino-1-(chloromethyl)-1H-benzo[e]indol-3(2H)-yl)(5-(2-(dimethylamino)ethoxy)-1H-indol-2-yl)methanone at 0.2 equiv. per base pair at pH 7 after 1 hr by spectrometric analysis; assay type: nucleic-acid assay; details: Bos taurus
[3] = system: L1210; assay: Cytotoxicity against mouse L1210 cells; assay type: functional, cell-based
[4] = system: Calf thymus DNA; assay: Binding affinity to calf thymus DNA assessed as change in melting temperature at 6.9 DNA to compound ratio at pH 7.2 by spectrophotometric analysis; assay type: nucleic-acid assay; details: Bos taurus
[5] = system: L1210; assay: Cytotoxicity against mouse L1210 cells after 3 days by coulter counter analysis; assay type: functional, cell-based; details: L1210, 72 h
[6] = system: L1210; assay: Cytotoxicity against mouse L1210 cells after 24 hrs by MTT assay; assay type: functional, cell-based; details: L1210, 24 h

CN(C)CCOc1ccc2[nH]c(C(=O)N3CC(CCl)c4c3cc(N)c3ccccc43)cc2c1 (configuration not stated)
pIC50 [1]: 7.74

CN(C)CCOc1ccc2[nH]c(C(=O)N3CC4CC45C3=CC(=N)c3ccccc35)cc2c1 (configuration not stated)
ΔTm [2]: 13 °C

COC(=O)c1cc2c([nH]1)C(=O)C=C1N(C(=O)c3cc4cc(OC)c(OC)c(OC)c4[nH]3)CC3CC123 (configuration not stated) [DUOCARMYCIN SA]
pIC50 [3]: 11.00

COc1c(O)c2c(c3cc(C(=O)N4CCc5c4c(O)c(OC)c4[nH]c(C(=O)N6C[C@H]7C[C@@]78C6=CC(=O)c6[nH]cc(C)c68)cc54)[nH]c13)CCN2C(N)=O [(+)-CC-1065]
ΔTm [4]: 31 °C | pIC50 [5]: 10.62

COc1cc2[nH]c(C(=O)N3C[C@H]4C[C@@]45C3=CC(=O)c3[nH]c(C(=O)N4CCc6c4c(O)c(OC)c4[nH]c(C(=O)SC)cc64)cc35)cc2cc1O
pIC50 [6]: 11.30

CN(C)CCOc1ccc2[nH]c(C(=O)N3CC(CCl)c4c3cc(NC(=O)OC(C)(C)C)c3ccccc43)cc2c1 (configuration not stated)
pIC50 [1]: 6.66
